Test results taken from paper PMC8330742, “New benzothieno[2,3-c]pyridines as non-steroidal CYP17 inhibitors: design, synthesis, anticancer screening, apoptosis induction, and in silico ADME profile studies” (Journal of Enzyme Inhibition and Medicinal Chemistry, 2021).

Experiments:
TK-10 = assay: NCI-60 SRB screen; type: cell-based, human; conditions: Homo sapiens; single dose 10^−5 M; TK-10, Renal cancer; read-out: Growth inhibition (%)
NCI-H226 = assay: NCI-60 SRB screen; type: cell-based, human; conditions: Homo sapiens; single dose 10^−5 M; NCI-H226, Non-small cell lung carcinoma; read-out: Growth inhibition (%)
K-562 = assay: NCI-60 SRB screen; type: cell-based, human; conditions: Homo sapiens, K562; single dose 10^−5 M; K-562, Leukaemia; read-out: Growth inhibition (%)
SK-MEL-28 = assay: NCI-60 SRB screen; type: cell-based; conditions: Homo sapiens; single dose 10^−5 M; SK-MEL-28, Melanoma; read-out: Growth inhibition (%)
NCI-H460 = assay: NCI-60 SRB screen; type: cell-based, human; conditions: Homo sapiens; single dose 10^−5 M; NCI-H460, Non-small cell lung carcinoma; read-out: Growth inhibition (%)
HCT-15 = assay: NCI-60 SRB screen; type: cell-based, human; conditions: Homo sapiens; single dose 10^−5 M; HCT-15, Colon cancer; read-out: Growth inhibition (%)
CAKI-1 = assay: NCI-60 SRB screen; type: cell-based, human; conditions: Homo sapiens; single dose 10^−5 M; CAKI-1, Renal cancer; read-out: Growth inhibition (%)
[1] = tested on: panel of 60 cancer cell lines; assay: NCI-60 SRB screen, mean or range over the panel; type: cell-based, human; conditions: Homo sapiens; mean over the cell lines; single dose 10^−5 M; read-out: Mean growth inhibition (%)
SW-620 = assay: NCI-60 SRB screen; type: cell-based; conditions: Homo sapiens; single dose 10^−5 M; SW-620, Colon cancer; read-out: Growth inhibition (%)
UO-31 = assay: NCI-60 SRB screen; type: cell-based, human; conditions: Homo sapiens; single dose 10^−5 M; UO-31, Renal cancer; read-out: Growth inhibition (%)
SR = assay: NCI-60 SRB screen; type: cell-based; conditions: Homo sapiens, single dose 10^−5 M, Leukaemia, read-out: Growth inhibition (%)
NCI-H322M = assay: NCI-60 SRB screen; type: cell-based, human; conditions: Homo sapiens, single dose 10^−5 M, Non-small cell lung carcinoma, read-out: Growth inhibition (%)
HCT-116 = assay: NCI-60 SRB screen; type: cell-based, human; conditions: Homo sapiens; single dose 10^−5 M; HCT-116, Colon cancer; read-out: Growth inhibition (%)
COLO 205 = assay: NCI-60 SRB screen; type: cell-based, human; conditions: Homo sapiens; single dose 10^−5 M; COLO 205, Colon cancer; read-out: Growth inhibition (%)
HOP-92 = assay: NCI-60 SRB screen; type: cell-based, human; conditions: Homo sapiens; single dose 10^−5 M; HOP-92, Non-small cell lung carcinoma; read-out: Growth inhibition (%)
HL-60(TB) = assay: NCI-60 SRB screen; type: cell-based, human; conditions: Homo sapiens; single dose 10^−5 M; HL-60(TB), Leukaemia; read-out: Growth inhibition (%)
SN12C = assay: NCI-60 SRB screen; type: cell-based, human; conditions: Homo sapiens, SN12C; single dose 10^−5 M; SN 12 C, Renal cancer; read-out: Growth inhibition (%)
SF-268 = assay: NCI-60 SRB screen; type: cell-based, human; conditions: Homo sapiens; single dose 10^−5 M; SF-268, CNS cancer; read-out: Growth inhibition (%)
SK-MEL-5 = assay: NCI-60 SRB screen; type: cell-based, human; conditions: Homo sapiens; single dose 10^−5 M; SK-MEL-5, Melanoma; read-out: Growth inhibition (%)
SK-MEL-2 = assay: NCI-60 SRB screen; type: cell-based, human; conditions: Homo sapiens; single dose 10^−5 M; SK-MEL-2, Melanoma; read-out: Growth inhibition (%)
NCI-H522 = assay: NCI-60 SRB screen; type: cell-based, human; conditions: Homo sapiens; single dose 10^−5 M; NCI-H522, Non-small cell lung carcinoma; read-out: Growth inhibition (%)
IGROV1 = assay: NCI-60 SRB screen; type: cell-based, human; conditions: Homo sapiens, IGROV-1; single dose 10^−5 M; IGROV1, Ovarian cancer; read-out: Growth inhibition (%)
786-0 = assay: NCI-60 SRB screen; type: cell-based; conditions: Homo sapiens; single dose 10^−5 M; 786-0, Renal cancer; read-out: Growth inhibition (%)
M14 = assay: NCI-60 SRB screen; type: cell-based, human; conditions: Homo sapiens; single dose 10^−5 M; M14, Melanoma; read-out: Growth inhibition (%)
MALME-3M = assay: NCI-60 SRB screen; type: cell-based, human; conditions: Homo sapiens, single dose 10^−5 M, Melanoma, read-out: Growth inhibition (%)
OVCAR-8 = assay: NCI-60 SRB screen; type: cell-based, human; conditions: Homo sapiens; single dose 10^−5 M; OVCAR-8, Ovarian cancer; read-out: Growth inhibition (%)
RXF 393 = assay: NCI-60 SRB screen; type: cell-based, human; conditions: Homo sapiens; single dose 10^−5 M; RXF 393, Renal cancer; read-out: Growth inhibition (%)
HOP-62 = assay: NCI-60 SRB screen; type: cell-based, human; conditions: Homo sapiens; single dose 10^−5 M; HOP-62, Non-small cell lung carcinoma; read-out: Growth inhibition (%)
EKVX = assay: NCI-60 SRB screen; type: cell-based, human; conditions: Homo sapiens, single dose 10^−5 M, Non-small cell lung carcinoma, read-out: Growth inhibition (%)
NCI/ADR-RES = assay: NCI-60 SRB screen; type: cell-based, human; conditions: Homo sapiens, single dose 10^−5 M, Ovarian cancer, read-out: Growth inhibition (%)
SF-295 = assay: NCI-60 SRB screen; type: cell-based, human; conditions: Homo sapiens; single dose 10^−5 M; SF-295, CNS cancer; read-out: Growth inhibition (%)
OVCAR-3 = assay: NCI-60 SRB screen; type: cell-based, human; conditions: Homo sapiens; single dose 10^−5 M; OVCAR-3, Ovarian cancer; read-out: Growth inhibition (%)
UACC-62 = assay: NCI-60 SRB screen; type: cell-based, human; conditions: Homo sapiens; single dose 10^−5 M; UACC-62, Melanoma; read-out: Growth inhibition (%)
KM12 = assay: NCI-60 SRB screen; type: cell-based, human; conditions: Homo sapiens; single dose 10^−5 M; KM12, Colon cancer; read-out: Growth inhibition (%)
UACC-257 = assay: NCI-60 SRB screen; type: cell-based, human; conditions: Homo sapiens; single dose 10^−5 M; UACC-257, Melanoma; read-out: Growth inhibition (%)
HT-29 = assay: NCI-60 SRB screen; type: cell-based; conditions: Homo sapiens; single dose 10^−5 M; HT-29, Colon cancer; read-out: Growth inhibition (%)
MDA-MB-435 = assay: NCI-60 SRB screen; type: cell-based; conditions: Homo sapiens, MDA-MB-435, read-out: Growth inhibition (%)
ACHN = assay: NCI-60 SRB screen; type: cell-based; conditions: Homo sapiens, single dose 10^−5 M, Renal cancer, read-out: Growth inhibition (%)
NCI-H23 = assay: NCI-60 SRB screen; type: cell-based, human; conditions: Homo sapiens; single dose 10^−5 M; NCI-H23, Non-small cell lung carcinoma; read-out: Growth inhibition (%)
MOLT-4 = assay: NCI-60 SRB screen; type: cell-based; conditions: Homo sapiens; single dose 10^−5 M; MOLT-4, Leukaemia; read-out: Growth inhibition (%)
SK-OV-3 = assay: NCI-60 SRB screen; type: cell-based, human; conditions: Homo sapiens; single dose 10^−5 M; SK-OV-3, Ovarian cancer; read-out: Growth inhibition (%)
CCRF-CEM = assay: NCI-60 SRB screen; type: cell-based; conditions: Homo sapiens, single dose 10^−5 M, Leukaemia, read-out: Growth inhibition (%)
A549/ATCC = assay: NCI-60 SRB screen; type: cell-based, human; conditions: Homo sapiens, single dose 10^−5 M, Non-small cell lung carcinoma, read-out: Growth inhibition (%)
OVCAR-4 = assay: NCI-60 SRB screen; type: cell-based, human; conditions: Homo sapiens; single dose 10^−5 M; OVCAR-4, Ovarian cancer; read-out: Growth inhibition (%)

N#CC1=C(N2CCCCC2)NC(c2cccc([N+](=O)[O-])c2)c2sc3c(F)cccc3c21 (stereo not shown) [Compound 8f, 4-Cyano-3-(piperidin-1-yl)-8-fluoro-1-(3-nitrophenyl)-1,2-dihydro [1]benzothieno[2,3-c]pyridine]
inhibition at 10 µM (TK-10): -53.1%
inhibition at 10 µM (NCI-H226): 15.7%
inhibition at 10 µM (K-562): 23.1%
inhibition at 10 µM (SK-MEL-28): -10.7%
inhibition at 10 µM (NCI-H460): 2.2%
inhibition at 10 µM (HCT-15): -4.78%
inhibition at 10 µM (CAKI-1): 28.7%
inhibition at 10 µM [1]: 0.008%
inhibition at 10 µM (SW-620): 4.11%
inhibition at 10 µM (UO-31): 33.3%
inhibition at 10 µM (SR): 11.1%
inhibition at 10 µM (NCI-H322M): -5.64%
inhibition at 10 µM (HCT-116): 4.5%
inhibition at 10 µM (COLO 205): -16.7%
inhibition at 10 µM (HOP-92): 4.9%
inhibition at 10 µM (HL-60(TB)): -3.35%
inhibition at 10 µM (SN12C): 3.7%
inhibition at 10 µM (SF-268): 9.44%
inhibition at 10 µM (SK-MEL-5): -14.8%
inhibition at 10 µM (SK-MEL-2): 2.71%
inhibition at 10 µM (NCI-H522): 9.54%
inhibition at 10 µM (IGROV1): 14.9%
inhibition at 10 µM (786-0): -12.1%
inhibition at 10 µM (M14): 0.58%
inhibition at 10 µM (MALME-3M): -10.6%
inhibition at 10 µM (OVCAR-8): -0.33%
inhibition at 10 µM (RXF 393): -6.31%
inhibition at 10 µM (HOP-62): 10.2%
inhibition at 10 µM (EKVX): 5.51%
inhibition at 10 µM (NCI/ADR-RES): -1.61%
inhibition at 10 µM (SF-295): -9.62%
inhibition at 10 µM (OVCAR-3): 0.09%
inhibition at 10 µM (UACC-62): 15.5%
inhibition at 10 µM (KM12): 5.13%
inhibition at 10 µM (UACC-257): -12.7%
inhibition at 10 µM (HT-29): -4.42%
inhibition at 10 µM (MDA-MB-435): -6.93%
inhibition at 10 µM (ACHN): 14.3%
inhibition at 10 µM (NCI-H23): 4.09%
inhibition at 10 µM (MOLT-4): 5.31%
inhibition at 10 µM (SK-OV-3): 7.22%
inhibition at 10 µM (CCRF-CEM): 3.32%
inhibition at 10 µM (A549/ATCC): -2.65%
inhibition at 10 µM (OVCAR-4): 0.9%

O=[N+]([O-])c1cccc(C2NC3=C(Nc4ccccc4N3)c3c2sc2c(F)cccc32)c1 (stereo not shown) [Compound 9, 9-Fluoro-7-(3-nitrophenyl)-5,6,7,13-tetrahydro[1]benzothieno[3′,2′:4,5]-pyrido[2,3-b]quinoxaline]
inhibition at 10 µM (TK-10): -54.7%
inhibition at 10 µM (NCI-H226): 10.4%
inhibition at 10 µM (K-562): 16.6%
inhibition at 10 µM (SK-MEL-28): -7.98%
inhibition at 10 µM (NCI-H460): 1.16%
inhibition at 10 µM (HCT-15): -4.08%
inhibition at 10 µM (CAKI-1): 28.3%
inhibition at 10 µM [1]: 7.87%
inhibition at 10 µM (SW-620): 2%
inhibition at 10 µM (UO-31): 36.1%
inhibition at 10 µM (SR): 16.5%
inhibition at 10 µM (NCI-H322M): -1.56%
inhibition at 10 µM (HCT-116): -1.05%
inhibition at 10 µM (COLO 205): -17.1%
inhibition at 10 µM (HOP-92): -1.53%
inhibition at 10 µM (HL-60(TB)): -3.65%
inhibition at 10 µM (SN12C): 1.71%
inhibition at 10 µM (SF-268): 7.06%
inhibition at 10 µM (SK-MEL-5): -22%
inhibition at 10 µM (SK-MEL-2): 3.87%
inhibition at 10 µM (NCI-H522): 4.63%
inhibition at 10 µM (IGROV1): 24.2%
inhibition at 10 µM (786-0): -10.3%
inhibition at 10 µM (M14): 1.33%
inhibition at 10 µM (MALME-3M): -7.56%
inhibition at 10 µM (OVCAR-8): -3.4%
inhibition at 10 µM (RXF 393): -15.3%
inhibition at 10 µM (HOP-62): 9.45%
inhibition at 10 µM (EKVX): 4.82%
inhibition at 10 µM (NCI/ADR-RES): -6.5%
inhibition at 10 µM (SF-295): -7.1%
inhibition at 10 µM (OVCAR-3): -3.93%
inhibition at 10 µM (UACC-62): 11.5%
inhibition at 10 µM (KM12): -0.46%
inhibition at 10 µM (UACC-257): -15.2%
inhibition at 10 µM (HT-29): -5.27%
inhibition at 10 µM (MDA-MB-435): -7%
inhibition at 10 µM (ACHN): 15.5%
inhibition at 10 µM (NCI-H23): 0.22%
inhibition at 10 µM (MOLT-4): -1.99%
inhibition at 10 µM (SK-OV-3): -1.7%
inhibition at 10 µM (CCRF-CEM): -1.14%
inhibition at 10 µM (A549/ATCC): -2.98%
inhibition at 10 µM (OVCAR-4): -2.74%
